Consider 34 compounds from ChEMBL document CHEMBL1157539, “Thousands of chemical starting points for antimalarial lead identification” (Nature, 2010).

For this test, the system named is Plasmodium falciparum. As to the kind of experiment: GSK_TCMDC: Inhibition of Plasmodium falciparum 3D7 in whole erythrocytes, using parasite LDH activity as an index of growth. The class given is functional, organism-based. The settings on record: Plasmodium falciparum, 3D7.
`CCN(CC)CCN(Cc1ccc(-c2ccc(C(F)(F)F)cc2)cc1)C(=O)Cn1c(CCc2cccc(F)c2F)cc(=O)c(C)c1C` returned an XC50 of 624 nM.
As to `CCC[C@@H]([C@@H](CC(C)C)C(=O)N[C@@H](CCC/N=C(/N)NS(C)(=O)=O)C(=O)Nc1nccs1)N(O)C=O`, the XC50 came out at 941 nM.
`COc1cc2nc(-c3ccccc3)nc(N3CCN(CC(=O)N4CCCC4)CC3)c2cc1OC` registered an XC50 of 1130 nM.
On to `CCc1ccccc1OCCCON1C(=N)N=C(N)NC1(C)C`, for which the XC50 came to 3.2 nM.
The compound `N=C(N)NC(=O)Nc1ccc(Cl)c(C(F)(F)F)c1` had an XC50 of 594 nM.
The compound `CCNc1cc(C(=O)NC(Cc2ccccc2)C(O)CNC(C)(C)CCCC(C)C)c(F)c(N2CCCS2(=O)=O)c1` (centres undefined) gave an XC50 of 197 nM.
Turning to `COc1ccc2[nH]c(C)cc(=NN=Cc3ccc(F)cc3)c2c1`, the XC50 stood at 191 nM.
Consider `COc1cc(C(=O)NC2CC(C)(C)NC(C)(C)C2)ccc1-c1cc2cc(Cl)c(Cl)cc2[nH]1`, for which the XC50 is 724 nM.
Regarding `O=C(NCCCCN1CCC(c2c[nH]c3ccc(-c4ccccc4)cc23)CC1)c1ccc(-c2ccccc2)cc1`, the XC50 worked out at 985 nM.
In the case of `CSc1nnc2n(Cc3ccccc3)c(=O)c3c(n12)-c1ccccc1CC31CCCCC1`, the XC50 stood at 969 nM.
In turn, `Cc1c(Cc2ccccc2)c(=O)oc2c(C)c3c(cc12)CN(CC(C)c1ccccc1)CO3` (centres undefined) showed an XC50 of 454 nM.
The compound `COc1cc2cc(-c3nc4ccccc4[nH]3)c(N)nc2cc1OC` had an XC50 of 168 nM.
In turn, `CC1(C)S(=O)(=O)CC(O)CS1(=O)=O` came in with an XC50 of 467 nM.
In the case of `Cc1ccc(CN2CCCN(Cc3ccc(C(=O)Nc4ccc(Cl)cc4)cc3)CC2)s1`, the XC50 was 1110 nM.
`O=C(/C=C/c1ccc(Cl)c(Cl)c1)N1CCC(CN2CCC(c3c[nH]c4ncccc34)CC2)CC1`: the XC50 was 1090 nM.
`O=C(Nc1cccc([N+](=O)[O-])c1)Nc1ccc(Cl)c(C(F)(F)F)c1` had an XC50 of 1120 nM.
The value for `Cc1cc(-c2ccc3c(c2)CCN(CCCOc2ccc4c(c2)CCN4C(=O)/C=C/c2ccccc2Cl)CC3)no1` was 1230 nM; that for `c1ccc(C23NC(=Nc4nc5ccccc5[nH]4)NC2(c2ccccc2)NC(=Nc2nc4ccccc4[nH]2)N3)cc1` (centres undefined) was 276 nM.
On to `Cc1cnc(C(=O)Nc2ccc3c(c2)CCCN(Cc2c[nH]c4cnccc24)C3)cn1`, for which the XC50 stood at 1230 nM.
On to `Cc1cc(NC(=O)Nc2ccc3nc(C)oc3c2)c2cc(Cl)ccc2n1`, for which the XC50 came to 1120 nM.
`Nc1c2c(nc3ccc(C(=O)Nc4ccccc4)cc13)CCCC2`: the XC50 came out at 714 nM.
The value for `CC(Cc1ccc(OCCCCOc2ccccc2)cc1)NCCCc1nc2ccccc2[nH]1` (centres undefined) was 981 nM; that for `N#Cc1ccc2c(c1)CCN(CCC1CCC(NC(=O)Nc3ccnc4ccccc34)CC1)C2` (centres undefined) was 377 nM; that for `Cc1ccc(CNC(=O)[C@H](CCCN)Nc2nc(NCC3CCCCC3)ncc2C)cc1` was 987 nM.
For `O=S(=O)(NCCN1CCCC1)c1cccc(-c2cccc(CNCCc3cccs3)c2)c1`, the XC50 stood at 753 nM.
Under `Cc1cc(OCCCN2CCCCC2C)ccc1NC(=O)COc1ccc(Cl)cc1C(=O)c1cc(Cl)cc(C#N)c1` (centres undefined) stands 981 nM; under `CCS(=O)(=O)Nc1ccc2[nH]cc(C3CCN(CCC4CCN(C(=O)/C=C/c5ccc(Cl)c(Cl)c5)CC4)CC3)c2c1`, 534 nM.
`Cc1ccc(C(=O)Nc2ccc(C)c(OC3CCN(CCC(C)C)C3)c2)cc1` (centres undefined) displayed an XC50 of 793 nM.
On to `CCN(CC)CCNc1ccnc2c3ccccc3n(C)c12`, for which the XC50 is 238 nM.
Regarding `CCCCN1CCN(CCCNc2c3ccccc3nc3ccccc23)CC1`, the XC50 turned out to be 512 nM.
`CCCCOc1cc(OC)c2ccccc2c1CCNCCCCNCCc1c(OCCCC)cc(OC)c2ccccc12` registered an XC50 of 1050 nM.
As for `O=C(/C=C/c1ccc(Cl)c(Cl)c1)NCC1CCC(CN2CCC(c3c[nH]c4ccccc34)CC2)CC1` (centres undefined), the XC50 worked out at 356 nM.
Take `CN1CCC(NCc2ccc(-c3ccc(S(=O)(=O)NCc4ccccc4)c(F)c3)cc2)CC1`: the XC50 was 611 nM.
As for `COc1cccc(NC(=O)NC2CCN(c3ccnc(Nc4cc(OC)c(OC)c(OC)c4)n3)C2)c1` (centres undefined), the XC50 is 856 nM.
